Common to all, as to experiment: 26RFa-induced calcium mobilization, receptor mutants
What all share (type): cell-based

Test [1] deals with T1, QRFPR mutants (Homo sapiens, UniProt Q96P65, L193A).
T1 construct: expressed in transfected cells; host or cells: HEK293, transient transfection by electroporation
The method, then:
(§1) The gene encoding the WT QRFPR, PrPRR, KISS1R, NPFF1R, or NPFF2R was subcloned into the pcDNA3.0 vector with the addition of an N-terminal HA tag. All of the mutations used for functional studies were generated by QuickChange PCR and verified by DNA sequencing.
(§2) HEK293 cells were obtained from ATCC (Manassas, VA, USA) and cultured in DMEM supplemented with 10% (v/v) FBS, 100 mg/L penicillin, and 100 mg/L streptomycin in 5% CO2 at 37 °C. For transient transfection, ~2.5 × 10^6 cells were mixed with 2 µg plasmids in 200 µL transfection buffer, and electroporation was carried out with a Scientz-2C electroporation apparatus (Scientz Biotech, Ningbo, China). The experiments were carried out 24 h after transfection.
(§3) For QRFPR, PrRPR, and KISS1R, HEK293 cells transfected with WT receptor or its mutants were seeded at a density of 4 × 10^4 per well into 96-well culture plates and incubated for 24 h at 37 °C in 5% CO2. For NPFF1R and NPFF2R, plasmids were transfected into HEK293 cells stably expressing Gα16. On the next day, cells were incubated with 2 μmol/L Fluo-4 AM in HBSS supplemented with 5.6 mmol/L D-glucose and 250 μmol/L sulfinpyrazone at 37 °C for 45 min. After washing, cells were added with 50 μL HBSS and incubated at room temperature for 10 min, then 25 μL agonist buffer was dispensed into the well using a FlexStation III microplate reader (Molecular Devices), and intracellular calcium change was recorded at an excitation wavelength of 485 nm and an emission wavelength of 525 nm. EC50 and Emax values for each curve were calculated by Prism 8.0 software (GraphPad Software).

Test [2] deals with T2, QRFPR mutants (Homo sapiens, UniProt Q96P65, V129A).
T2 construct: expressed in transfected cells; host or cells: HEK293, transient transfection by electroporation
T2 sequence (Q96P65 whole entry V129A): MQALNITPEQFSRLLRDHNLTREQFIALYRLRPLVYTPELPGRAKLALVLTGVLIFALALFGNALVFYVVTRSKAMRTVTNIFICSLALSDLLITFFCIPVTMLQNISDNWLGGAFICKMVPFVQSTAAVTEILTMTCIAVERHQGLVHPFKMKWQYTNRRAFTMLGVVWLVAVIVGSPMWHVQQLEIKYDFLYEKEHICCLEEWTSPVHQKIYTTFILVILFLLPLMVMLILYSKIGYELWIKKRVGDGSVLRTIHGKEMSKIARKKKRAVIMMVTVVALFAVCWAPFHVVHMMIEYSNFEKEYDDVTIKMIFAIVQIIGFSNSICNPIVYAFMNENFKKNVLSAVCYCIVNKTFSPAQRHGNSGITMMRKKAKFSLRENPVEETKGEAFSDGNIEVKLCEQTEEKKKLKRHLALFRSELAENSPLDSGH
The settings on record: HEK293, QRFPR V129^3.36A; HEK293, Fluo-4; mean ± S.E.M., n ≥ 3. As to the method:
as §1, §2, §3

For test [3], the target named is T3, QRFPR mutants (Homo sapiens, UniProt Q96P65, W286A).
T3 construct: expressed in transfected cells; host or cells: HEK293, transient transfection by electroporation
T3 sequence (Q96P65 whole entry W286A): as the sequence (Q96P65 whole entry V129A) above, with A129V, W286A counted along it
The settings on record: HEK293, QRFPR W286^6.48A; HEK293, Fluo-4; mean ± S.E.M., n ≥ 3. As to the method: as §1, §2, §3

In test [4] the target is T4, QRFPR mutants (Homo sapiens, UniProt Q96P65, H290A).
T4 construct: expressed in transfected cells; host or cells: HEK293, transient transfection by electroporation
T4 sequence (Q96P65 whole entry H290A): as the sequence (Q96P65 whole entry V129A) above, with A129V, H290A counted along it
To be noted: HEK293, QRFPR H290^6.52A; HEK293, Fluo-4; mean ± S.E.M., n ≥ 3. The method, then: as §1, §2, §3

In test [5] the target is T5, QRFPR mutants (Homo sapiens, UniProt Q96P65, S126A).
T5 construct: expressed in transfected cells; host or cells: HEK293, transient transfection by electroporation
T5 sequence (Q96P65 whole entry S126A): as the sequence (Q96P65 whole entry V129A) above, with S126A, A129V counted along it
The settings on record: HEK293, QRFPR S126^3.33A; HEK293, Fluo-4; mean ± S.E.M., n ≥ 3. The method, then: as §1, §2, §3

The target in test [6] is T6, QRFPR mutants (Homo sapiens, UniProt Q96P65, W111A).
T6 construct: expressed in transfected cells; host or cells: HEK293, transient transfection by electroporation
T6 sequence (Q96P65 whole entry W111A): as the sequence (Q96P65 whole entry V129A) above, with W111A, A129V counted along it
To be noted: HEK293, QRFPR W111^23.50A; HEK293, Fluo-4; mean ± S.E.M., n ≥ 3. As to the method:
as §1, §2, §3

Test [7] has as its target T7, QRFPR mutants (Homo sapiens, UniProt Q96P65, H293A).
T7 construct: expressed in transfected cells; host or cells: HEK293, transient transfection by electroporation
To be noted: HEK293, QRFPR H293^6.55A; HEK293, Fluo-4; mean ± S.E.M., n ≥ 3. The method, then:
as §1, §2, §3

Test [8] deals with T8, QRFPR mutants (Homo sapiens, UniProt Q96P65, E203A).
T8 construct: expressed in transfected cells; host or cells: HEK293, transient transfection by electroporation
T8 sequence (Q96P65 whole entry E203A): as the sequence (Q96P65 whole entry V129A) above, with A129V, E203A counted along it
The method, then: as §1, §2, §3

Test [9] deals with T9, QRFPR mutants (Homo sapiens, UniProt Q96P65, F289L).
T9 construct: expressed in transfected cells; host or cells: HEK293, transient transfection by electroporation
T9 sequence (Q96P65 whole entry F289L): as the sequence (Q96P65 whole entry V129A) above, with A129V, F289L counted along it
The method, then:
as §1, §2, §3

The target in test [10] is T10, QRFPR mutants (Homo sapiens, UniProt Q96P65, M180A).
T10 construct: expressed in transfected cells; host or cells: HEK293, transient transfection by electroporation
T10 sequence (Q96P65 whole entry M180A): as the sequence (Q96P65 whole entry V129A) above, with A129V, M180A counted along it
To be noted: HEK293, QRFPR M180^4.60A; HEK293, Fluo-4; mean ± S.E.M., n ≥ 3. As to the method:
as §1, §2, §3

The target of test [11] is T11, QRFPR mutants (Homo sapiens, UniProt Q96P65, V101A).
T11 construct: expressed in transfected cells; host or cells: HEK293, transient transfection by electroporation
T11 sequence (Q96P65 whole entry V101A): as the sequence (Q96P65 whole entry V129A) above, with V101A, A129V counted along it
The settings on record: HEK293, QRFPR V101^2.59A; HEK293, Fluo-4; mean ± S.E.M., n ≥ 3. The method, then: as §1, §2, §3

The target in test [12] is T12, QRFPR mutants (Homo sapiens, UniProt Q96P65, L202A).
T12 construct: expressed in transfected cells; host or cells: HEK293, transient transfection by electroporation
T12 sequence (Q96P65 whole entry L202A): as the sequence (Q96P65 whole entry V129A) above, with A129V, L202A counted along it
To be noted: HEK293, QRFPR L202^45.51A; HEK293, Fluo-4; mean ± S.E.M., n ≥ 3. As to the method:
as §1, §2, §3

The target of test [13] is T13, QRFPR mutants (Homo sapiens, UniProt Q96P65, Q105A).
T13 construct: expressed in transfected cells; host or cells: HEK293, transient transfection by electroporation
T13 sequence (Q96P65 whole entry Q105A): as the sequence (Q96P65 whole entry V129A) above, with Q105A, A129V counted along it
The settings on record: HEK293, QRFPR Q105^2.63A; HEK293, Fluo-4; mean ± S.E.M., n ≥ 3. The method, then: as §1, §2, §3

In test [14] the target is T14, QRFPR mutants (Homo sapiens, UniProt Q96P65, C98A).
T14 construct: expressed in transfected cells; host or cells: HEK293, transient transfection by electroporation
T14 sequence (Q96P65 whole entry C98A): as the sequence (Q96P65 whole entry V129A) above, with C98A, A129V counted along it
The settings on record: HEK293, QRFPR C98^2.57A; HEK293, Fluo-4; mean ± S.E.M., n ≥ 3. The method, then:
as §1, §2, §3

The target in test [15] is T15, QRFPR mutants (Homo sapiens, UniProt Q96P65, C118A).
T15 construct: expressed in transfected cells; host or cells: HEK293, transient transfection by electroporation
T15 sequence (Q96P65 whole entry C118A): as the sequence (Q96P65 whole entry V129A) above, with C118A, A129V counted along it
To be noted: HEK293, QRFPR C118^3.25A; HEK293, Fluo-4; mean ± S.E.M., n ≥ 3. As to the method:
as §1, §2, §3

The target of test [16] is T16, QRFPR mutants (Homo sapiens, UniProt Q96P65, V121A).
T16 construct: expressed in transfected cells; host or cells: HEK293, transient transfection by electroporation
T16 sequence (Q96P65 whole entry V121A): as the sequence (Q96P65 whole entry V129A) above, with V121A, A129V counted along it
The settings on record: HEK293, QRFPR V121^3.28A; HEK293, Fluo-4; mean ± S.E.M., n ≥ 3. The method, then:
as §1, §2, §3

No end group written: not given here.

Consider one substance from PMC11148045, “Structural basis for recognition of 26RFa by the pyroglutamylated RFamide peptide receptor” (Cell Discovery, 2024).

Broadly, the Emax is the maximal effect, on the per cent scale that the assay sets.

T1 sequence (Q96P65 whole entry L193A): as the sequence (Q96P65 whole entry V129A) above, with A129V, L193A counted along it
T7 sequence (Q96P65 whole entry H293A): as the sequence (Q96P65 whole entry V129A) above, with A129V, H293A counted along it

As to ASGPLGTLAEELSSYSRRKGGFSFRF-NH2 [26RFa], the Emax at QRFPR mutants [1] (HEK293, QRFPR L193^ECL2A, HEK293, Fluo-4, mean ± S.E.M., n ≥ 3) was found to be 66.8 ± 0.54%; on QRFPR mutants [2] it was 42.7 ± 0.71%; at QRFPR mutants [3], 1.8 ± 0.38%; at QRFPR mutants [4], 60.4 ± 0.39%; on QRFPR mutants [5], 92.3 ± 4.1%; on QRFPR mutants [6] it was 73.4 ± 1.7%. The Emax on QRFPR mutants [7] worked out at 95.5 ± 1.6%; at QRFPR mutants [8] (HEK293, QRFPR E203^45.52A, HEK293, Fluo-4, mean ± S.E.M., n ≥ 3), 96.9 ± 0.64%; on QRFPR mutants [9] (HEK293, QRFPR F289^6.51L, HEK293, Fluo-4, mean ± S.E.M., n ≥ 3) it was 112 ± 5.1%; on QRFPR mutants [10], 93.3 ± 1%; at QRFPR mutants [11], 102 ± 1.7%; at QRFPR mutants [12], 101 ± 2.3%. Also, the Emax on QRFPR mutants [13] came out at 83.8 ± 3.1%; at QRFPR mutants [14] it was 48.4 ± 0.88%; on QRFPR mutants [15] it was 1.43 ± 0.55%; on QRFPR mutants [16] it was 106 ± 5.4%. Besides, the “effect of mutation on peptide activity” value on QRFPR mutants [1] (QRFPR L193A) was “remarkable decline in peptide activity”. In addition, the “effect of E^45.52 to alanine” value at QRFPR mutants [8] (26RFa, QRFPR) is “remarkable decline of activity or potency”. Moreover, the “effect of mutation on 26RFa activity” value at QRFPR mutants [9] (QRFPR F289^6.51 to leucine) is reported as “did not impact the 26RFa activity”.
